Reference: US20110053884A1, “POTENT COMBINATIONS OF […] DRUGS THAT SELECT FOR THE K65R MUTATION IN THE HIV POLYMERASE” (priority 2007, published 2011)

Legend:
PBM cells = conditions: cited from earlier work; for Rate of dephosphorylation: in vivo
[1] = single dose, intravenous and oral, HIV-1 infected individuals; cited from earlier work
[2] = Day 20; rank order of treatment groups (mg bid)
Protocol: Twenty-four subjects were enrolled [placebo (n=2), AZT 200 mg (n=2), AZT 300 mg (n=2), DAPD 500 mg (n=6), DAPD/AZT 200 mg (n=6), and DAPD/AZT 300 mg (n=6)] and treated for 10 days. Hematological indices including hemoglobin (g/dl) and mean corpuscular volume (MCV, femtoliters) were measured at Screening, Day 1 prior to receiving treatment and Days 5, 10 and 20.

HIV-1 = conditions: incubation up to week 28; cited from earlier work
TK1 [3] = target: T1, TK1 (Homo sapiens, UniProt P04183); conditions: concentration at 50% of maximal metabolism rate; read-out: Km versus TK1; cited from earlier work
T1 sequence (P04183 1-234): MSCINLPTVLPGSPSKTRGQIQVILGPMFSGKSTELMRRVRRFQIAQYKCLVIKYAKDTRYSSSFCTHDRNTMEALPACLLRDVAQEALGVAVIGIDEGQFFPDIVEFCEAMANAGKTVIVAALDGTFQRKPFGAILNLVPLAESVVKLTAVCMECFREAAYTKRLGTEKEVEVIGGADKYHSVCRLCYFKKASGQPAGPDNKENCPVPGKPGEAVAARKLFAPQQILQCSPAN

HIV = test: Randomized double blind placebo controlled study, HIV RNA viral load over 10 days of treatment; type: in vivo, human
Protocol: (§1) Subjects with HIV RNA viral load (VL)≧5,000 copies/mL were enrolled and randomized 1:1:1 to DAPD 500 mg bid: DAPD 500 mg with AZT 300 mg bid: DAPD 500 mg with AZT 200 mg bid for 10 days. In each arm, subjects were randomized 3:1 to DAPD: placebo. VL was determined daily.

TK1 [4] = target: T1, TK1; test: Phosphorylation of AZT to AZT-MP by thymidine kinase; type: biochemical; conditions: activated PBM cells
Description: (§2) The initial intracellular phosphorylation step of AZT is catalyzed by thymidine kinase (TK). The most likely enzyme for monophosphorylation to AZT-MP is TK1, which is located primarily in the cytosol of cells in S-phase. […] Since the initial phosphorylation step of AZT to AZT-MP remains approximately linear with dose (5, 22), the Vmax,TK1 was assumed constant between individuals. […] The maximal rates of phosphorylation to AZT-MP and AZT-DP (Vmax,AZT-MP and Vmax,ThymK, respectively) in activated PBM cells were calculated using previously published enzyme kinetics measurements from a cohort of HIV-1 infected individuals who were not previously treated with AZT (36). […] The calculation assumed a volume of 0.21 μl/10^6, corresponding to a protein content of 0.12 mg (3, 33). The final phosphorylation step to active AZT-TP is catalyzed by nucleoside diphosphate kinase and is not rate limiting under physiological conditions. […] Therefore, the conversion rate of AZT-DP to AZT-TP (KDP,TP) was also assumed to be 0.28 h^−1. The assumed distributions for the rate constants describing the cellular phosphorylation and dephosphorylation of AZT are contained in Table 2.

thymidylate kinase [5] = target: T2, thymidylate kinase (Homo sapiens, UniProt P23919); test: Phosphorylation of AZT-MP to AZT-DP by thymidylate kinase; type: biochemical; conditions: activated PBM cells of HIV-1 infected individuals not previously treated with AZT; SD of log-transformed values 0.89
T2 sequence (P23919 1-212): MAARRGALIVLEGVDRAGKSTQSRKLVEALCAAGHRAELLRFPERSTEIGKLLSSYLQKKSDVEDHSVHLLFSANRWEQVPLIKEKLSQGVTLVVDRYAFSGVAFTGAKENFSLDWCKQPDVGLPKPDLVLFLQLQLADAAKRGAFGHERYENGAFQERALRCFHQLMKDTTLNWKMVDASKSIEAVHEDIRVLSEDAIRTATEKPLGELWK
Description: as §2

thymidylate kinase [6] = target: T2, thymidylate kinase; conditions: cited from earlier work; for Km: substrate AZT-MP, read-out: Km versus thymidylate kinase (Km,ThmK)
[7] = target: wild-type HIV-1 reverse transcriptase (Human immunodeficiency virus type 1 group M subtype B, UniProt P03366); conditions: cited from earlier work
[8] = Tolerability in the DAPD/AZT clinical study; type: in vivo, human; conditions: 10 days of treatment, HIV-infected subjects
Protocol: as §1

[9] = cited from earlier work

Cc1cn([C@H]2C[C@H](N=[N+]=[N-])[C@@H](CO)O2)c(=O)[nH]c1=O [AZT, 3′-azido-3′-deoxythymidine]
Accumulation of AZT nucleotides, stimulated versus resting PBM cells (PBM cells): 60 to 150 times
Rate of dephosphorylation (PBM cells): 0.28 h⁻¹
Systemic clearance (Cl) [1]: 18.3 to 25 mL/min/kg
Volume of distribution (Vss) [1]: 1.3 to 1.4 L/kg
Trend in decrease in hemoglobin from Baseline [2]: DAPD/AZT 300≧AZT 300≧DAPD/AZT 200>AZT 200>DAPD>placebo
Trend in increase in MCV from Baseline [2]: DAPD/AZT 300>AZT 300>DAPD/AZT 200>AZT 200>placebo>DAPD
Drug resistant mutations selected in vitro (HIV-1): a mixture of K70K/R mutations at week 25
Km (TK1 [3]): 0.6 µM
Mean VL ± SD from baseline (HIV; Day 9, AZT 200 mg bid alone): −0.80 log10 copies/mL
Mean VL ± SD from baseline (HIV; Day 9, AZT 300 mg bid alone): −0.35 log10 copies/mL
Mean VL ± SD from baseline (HIV; Day 10, AZT 200 mg bid alone): −0.65 log10 copies/mL
Mean VL ± SD from baseline (HIV; Day 10, AZT 300 mg bid alone): −0.45 log10 copies/mL
Mean VL ± SD from baseline (HIV; Day 11, AZT 200 mg bid alone): −0.70 log10 copies/mL
Mean VL ± SD from baseline (HIV; Day 11, AZT 300 mg bid alone): −0.60 log10 copies/mL
Vmax,TK1, maximal rate of phosphorylation to AZT-MP (TK1 [4]): 0.86 μmol/l per hr
Vmax,ThymK, median (thymidylate kinase [5]): 0.13 μmol/l per hr
Km (thymidylate kinase [6]): 12 µM

Cc1cn([C@H]2C[C@H](N=[N+]=[N-])[C@@H](COP(=O)(O)OP(=O)(O)O)O2)c(=O)[nH]c1=O [AZT-DP, AZT-diphosphate]
Rate of dephosphorylation (PBM cells): 0.28 h⁻¹

Cc1cn([C@H]2C[C@H](N=[N+]=[N-])[C@@H](COP(=O)(O)O)O2)c(=O)[nH]c1=O [AZT-MP, zidovudine-monophosphate]
Rate of dephosphorylation (PBM cells): 0.28 h⁻¹
Vmax,ThymK, median (thymidylate kinase [5]): 0.13 μmol/l per hr
Km (thymidylate kinase [6]): 12 µM
Vmax,AZT-MP as share of the Vmax versus thymidine-MP (thymidylate kinase [6]; thymidylate kinase): 0.3%

Cc1cn([C@H]2C[C@H](N=[N+]=[N-])[C@@H](CO[P@](=O)(O)O[P@](=O)(O)OP(=O)(O)O)O2)c(=O)[nH]c1=O [AZT-TP, zidovudine-triphosphate]
Rate of dephosphorylation (PBM cells): 0.28 h⁻¹
IC50 [7]: ~35 nM

Nc1nc(N)c2ncn([C@H]3CO[C@@H](CO)O3)c2n1 [DAPD, (−)-β-D-2,6-diaminopurine dioxolane]
Trend in decrease in hemoglobin from Baseline [2]: DAPD/AZT 300≧AZT 300≧DAPD/AZT 200>AZT 200>DAPD>placebo
Trend in increase in MCV from Baseline [2]: DAPD/AZT 300>AZT 300>DAPD/AZT 200>AZT 200>placebo>DAPD
Tolerability [8]: well tolerated
Drug resistant mutations selected in vitro (HIV-1): a mixture of K65R and L74V at week 20
Mean VL ± SD from baseline (HIV; Day 9, DAPD 500 mg bid alone): −0.83 ± 0.61 log10 copies/mL
Mean VL ± SD from baseline (HIV; Day 10, DAPD 500 mg bid alone): −1.07 ± 0.80 log10 copies/mL
Mean VL ± SD from baseline (HIV; Day 11, DAPD 500 mg bid alone): −1.03 ± 0.59 log10 copies/mL

Nc1nc2c(ncn2[C@H]2CO[C@@H](CO)O2)c(=O)[nH]1 [DXG, beta-D-(2R,4R)-1,3-dioxolane guanosine]
Cellular triphosphate half-life [9]: ~9.5 h

C[C@H](Cn1cnc2c(N)ncnc21)OCP(=O)(O)O [tenofovir, 9-R-2-phosphonomethoxypropyl adenine]
Cellular triphosphate half-life [9]: > 60 h
